Laboratory results taken from patent US5082848A, “Substituted 4-aminoquinoline derivatives as gastric acid secretion inhibitors” (Smith Kline & French Laboratories, Ltd., priority 1988, dated 1992).
Each block holds one compound with its values, some of them ahead of it.

How the values were obtained:
[1] = test system: pentagastrin stimulated gastric acid secretion; experiment: Rat Lumen Perfused Stomach (pentagastrin stimulated gastric acid secretion); type: in vivo; details: i.v. administration, 10 μmole/kg
Text: B. Rat Lumen Perfused Stomach (pentagastrin stimulated gastric acid secretion).
Using a modification of the procedure described by Ghosh & Schild (Br. J. Pharmacology, 13, 54, 1958), the compounds of the following examples were found on i.v. administration at a concentration of 10 μmole/kg to cause an inhibition of pentagastrin stimulated gastric acid secretion as follows: […]

[2] = target: T1, H^+ K^+ ATPase (Sus scrofa, UniProt P19156); experiment: K^+ -stimulated ATPase activity in lyophilised gastric vesicles; type: biochemical; details: lyophilised gastric vesicles from pig fundic mucosa, 37° C., pH 7.0, 30 minutes
T1 construct: Lyophilised gastric vesicles were prepared from pig fundic mucosa; from tissue; host or cells: pig fundic (gastric) mucosa, lyophilised gastric vesicles
Protocol: The effects of a single high concentration (100 μM) of a compound of structure (I) on K^+ -stimulated ATPase activity in lyophilised gastric vesicles was determined. Preferred compounds of structure (I) were also tested over a range of concentrations to determine IC50 values.
Lyophilised gastric vesicles were prepared from pig fundic mucosa after the method of Keeling et. al. (Biochem. Pharmacol., 34, 2967, 1985).
K^+ -stimulated ATPase activity was determined at 37° C. in the presence of the following: 10 mM Pipes/Tris buffer pH 7.0, 2 mM MgSO4, 1 mM KCl, 2 mM Na2 ATP and 3-6 μg protein/ml lyophilised gastric vesicles. After incubation for 30 minutes, the inorganic phosphate hydrolysed from ATP was determined by the method of Yoda and Hokin (Biochem. Biophys. Res. Commun. 40, 880, 1970).
Compounds of structure (I) were dissolved in dimethylsulphoxide which up to the highest concentration
used had no effect on K^+ -stimulated ATPase activity.
The effect of the highest concentration of each compound of structure (I) on the recovery of a standard amount of inorganic phosphate was also determined.

T1 sequence (P19156 2-1034 limits assumed): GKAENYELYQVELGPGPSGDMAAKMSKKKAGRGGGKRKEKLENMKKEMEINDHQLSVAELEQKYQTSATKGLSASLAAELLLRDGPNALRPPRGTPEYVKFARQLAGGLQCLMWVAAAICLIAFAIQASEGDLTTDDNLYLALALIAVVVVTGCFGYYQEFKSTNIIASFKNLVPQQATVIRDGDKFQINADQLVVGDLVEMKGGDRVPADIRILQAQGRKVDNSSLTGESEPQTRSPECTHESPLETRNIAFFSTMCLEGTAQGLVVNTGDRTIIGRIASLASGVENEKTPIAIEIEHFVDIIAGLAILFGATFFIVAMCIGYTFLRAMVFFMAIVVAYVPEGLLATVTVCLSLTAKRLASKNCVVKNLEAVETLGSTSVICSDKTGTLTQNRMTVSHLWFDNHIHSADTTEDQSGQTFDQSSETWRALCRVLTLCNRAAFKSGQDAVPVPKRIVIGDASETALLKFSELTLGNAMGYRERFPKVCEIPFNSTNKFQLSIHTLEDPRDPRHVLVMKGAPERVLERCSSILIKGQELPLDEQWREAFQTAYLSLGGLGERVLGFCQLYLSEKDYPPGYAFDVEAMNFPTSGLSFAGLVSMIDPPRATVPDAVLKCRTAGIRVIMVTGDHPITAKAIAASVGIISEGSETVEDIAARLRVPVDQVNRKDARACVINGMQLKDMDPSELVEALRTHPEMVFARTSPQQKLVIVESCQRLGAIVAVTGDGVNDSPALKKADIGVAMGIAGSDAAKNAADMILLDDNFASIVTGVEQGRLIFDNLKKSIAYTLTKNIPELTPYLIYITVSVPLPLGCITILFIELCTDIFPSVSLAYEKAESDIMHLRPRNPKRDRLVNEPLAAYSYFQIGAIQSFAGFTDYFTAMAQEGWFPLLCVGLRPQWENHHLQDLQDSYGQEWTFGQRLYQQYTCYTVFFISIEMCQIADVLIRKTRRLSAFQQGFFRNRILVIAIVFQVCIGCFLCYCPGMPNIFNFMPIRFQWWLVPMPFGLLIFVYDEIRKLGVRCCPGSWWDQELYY
T1 sequence (P18434 whole entry partner): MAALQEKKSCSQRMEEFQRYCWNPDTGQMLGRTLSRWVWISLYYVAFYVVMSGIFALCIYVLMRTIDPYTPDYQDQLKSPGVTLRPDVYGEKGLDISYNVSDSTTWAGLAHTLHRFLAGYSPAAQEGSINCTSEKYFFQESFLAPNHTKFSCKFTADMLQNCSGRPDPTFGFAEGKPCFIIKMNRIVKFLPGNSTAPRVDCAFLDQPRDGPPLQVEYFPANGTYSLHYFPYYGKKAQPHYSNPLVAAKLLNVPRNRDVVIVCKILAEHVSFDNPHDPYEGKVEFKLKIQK

Compound: CCCC(=O)c1cnc2c(OC)cccc2c1Nc1ccccc1CO [Example 1, 3-butyryl-4-(2-(hydroxymethyl)phenylamino)-8-methoxyquinoline]
% inhibition of pentagastrin stimulated gastric acid secretion [1]: 33%
IC50 [2]: 12 µM

Compound: CCCC(=O)c1cnc2c(OC)cccc2c1Nc1ccccc1COC [Example 2, 3-butyryl-4-(2-methoxymethylphenylamino)-8-methoxyquinoline]
% inhibition of pentagastrin stimulated gastric acid secretion [1]: 43%
IC50 [2]: 5.5 µM

Compound: CCCC(=O)c1cnc2c(OC)cccc2c1Nc1ccc(CO)cc1 [Example 4, 3-butyryl-4-(4-hydroxymethylphenylamino)-8-methoxyquinoline]
% inhibition of pentagastrin stimulated gastric acid secretion [1]: 51%

Further lines, with some results ahead:

IC50 [2]: 3.6 µM
Compound: CCCC(=O)c1cnc2c(OC)cccc2c1Nc1ccc2c(c1)OCO2 [Example 3, 3-butyryl-4-(3,4-(methylenedioxy)phenylamino)-8-methoxyquinoline]
% inhibition of pentagastrin stimulated gastric acid secretion [1]: 20%

IC50 [2]: 10.2 µM
Compound: CCCC(=O)c1cnc2c(OC)cccc2c1Nc1cc(CO)ccc1C [Example 7, 3-butyryl-4-(5-hydroxymethyl-2-methylphenylamino)-8-methoxyquinoline]
% inhibition of pentagastrin stimulated gastric acid secretion [1]: 25%

IC50 [2]: 2.7 µM
Compound: CCCC(=O)c1cnc2c(OC)cccc2c1Nc1c(C)cc2c(c1C)OCO2 [Example 5, 3-butyryl-4-(3,4-methylenedioxy-2,6-dimethylphenylamino)-8-methoxyquinoline]
% inhibition of pentagastrin stimulated gastric acid secretion [1]: 44%

IC50 [2]: 6 µM
Compound: CCCC(=O)c1cnc2c(OC)cccc2c1Nc1cccc(CO)c1C [Example 6, 3-butyryl-4-(3-hydroxymethyl-2-methylphenylamino)-8-methoxyquinoline]
